Experimental data as given in article PMC8185074, “Anchor extension: a structure-guided approach to design cyclic peptides targeting enzyme active sites” (Nature Communications, 2021).
Peptide text beside a SMILES is read from it.

Tests used:
Assay type in all cases: biochemical
[1] = target: T1, HDAC6 (Homo sapiens, UniProt Q9UBN7); assay: HDAC6 inhibition, full IC50 measurement (Reaction Biology; fluorogenic p53 peptide RHKK(Ac)AMC)
T1 construct: purchased Reaction Biology Corporation (assay run by the CRO)
T1 sequence (Q9UBN7 1-1215): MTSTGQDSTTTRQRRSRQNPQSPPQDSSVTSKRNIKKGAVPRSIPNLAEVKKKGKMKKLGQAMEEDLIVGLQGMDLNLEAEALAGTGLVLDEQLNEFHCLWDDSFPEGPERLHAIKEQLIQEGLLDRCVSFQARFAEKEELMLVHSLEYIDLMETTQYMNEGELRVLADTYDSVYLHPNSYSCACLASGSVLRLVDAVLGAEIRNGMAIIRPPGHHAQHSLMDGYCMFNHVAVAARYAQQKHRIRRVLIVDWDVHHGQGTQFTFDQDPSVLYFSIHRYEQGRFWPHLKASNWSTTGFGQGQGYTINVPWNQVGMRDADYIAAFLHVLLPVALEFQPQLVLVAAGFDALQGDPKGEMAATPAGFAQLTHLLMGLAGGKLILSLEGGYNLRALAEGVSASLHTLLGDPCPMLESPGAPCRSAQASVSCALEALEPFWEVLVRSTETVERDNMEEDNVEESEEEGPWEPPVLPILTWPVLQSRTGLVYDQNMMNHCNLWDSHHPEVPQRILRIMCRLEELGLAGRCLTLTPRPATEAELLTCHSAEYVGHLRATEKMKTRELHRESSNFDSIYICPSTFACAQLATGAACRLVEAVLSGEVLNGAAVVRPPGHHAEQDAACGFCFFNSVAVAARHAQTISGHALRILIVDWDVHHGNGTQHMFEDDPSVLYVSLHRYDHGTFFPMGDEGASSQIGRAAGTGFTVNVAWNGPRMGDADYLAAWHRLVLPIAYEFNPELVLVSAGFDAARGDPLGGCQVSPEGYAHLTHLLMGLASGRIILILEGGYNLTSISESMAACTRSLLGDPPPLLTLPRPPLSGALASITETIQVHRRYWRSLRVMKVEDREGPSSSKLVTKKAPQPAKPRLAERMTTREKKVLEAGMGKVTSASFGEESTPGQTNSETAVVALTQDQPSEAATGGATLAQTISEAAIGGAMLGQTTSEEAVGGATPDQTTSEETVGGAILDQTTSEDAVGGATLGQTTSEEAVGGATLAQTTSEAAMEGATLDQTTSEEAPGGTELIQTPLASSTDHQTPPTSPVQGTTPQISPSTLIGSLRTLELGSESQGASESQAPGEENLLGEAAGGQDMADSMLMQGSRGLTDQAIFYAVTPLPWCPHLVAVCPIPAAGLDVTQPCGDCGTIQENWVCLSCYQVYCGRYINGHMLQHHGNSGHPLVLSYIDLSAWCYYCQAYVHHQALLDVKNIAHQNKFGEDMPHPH
Method in brief: (§1)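 The reaction was a 1 h, 30 °C incubation of enzyme, acoustically added peptide and 50 μM p53-derived AMC substrate in pH 8.0 Tris buffer with NaCl, KCl, MgCl2, 1 mg/ml BSA and 1% DMSO. Duplicate values were averaged.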

[2] = target: T2, HDAC3 (Homo sapiens, UniProt O15379); assay: HDAC3 inhibition, full IC50 measurement (Reaction Biology; fluorogenic p53 peptide RHKK(Ac)AMC)
T2 construct: purchased Reaction Biology Corporation (assay run by the CRO)
Method in brief: as §1

[3] = target: T3, HDAC8 (Homo sapiens, UniProt Q9BY41); assay: HDAC8 inhibition, full IC50 measurement (Reaction Biology; fluorogenic p53 peptide RHKK(Ac)AMC); conditions: t1/t2 replicates
T3 construct: purchased Reaction Biology Corporation (assay run by the CRO)
T3 sequence (Q9BY41 1-377): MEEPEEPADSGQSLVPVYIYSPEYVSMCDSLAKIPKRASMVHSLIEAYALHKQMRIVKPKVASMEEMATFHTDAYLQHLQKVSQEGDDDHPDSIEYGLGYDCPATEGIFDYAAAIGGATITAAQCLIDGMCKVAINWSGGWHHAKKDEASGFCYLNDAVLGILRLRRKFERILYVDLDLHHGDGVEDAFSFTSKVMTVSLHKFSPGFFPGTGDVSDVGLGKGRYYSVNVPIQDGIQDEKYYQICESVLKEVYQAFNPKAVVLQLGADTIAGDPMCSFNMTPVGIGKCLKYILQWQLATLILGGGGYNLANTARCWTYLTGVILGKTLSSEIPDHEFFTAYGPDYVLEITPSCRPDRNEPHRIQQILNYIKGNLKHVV
Method in brief: as §1

T2 sequence (O15379 whole entry): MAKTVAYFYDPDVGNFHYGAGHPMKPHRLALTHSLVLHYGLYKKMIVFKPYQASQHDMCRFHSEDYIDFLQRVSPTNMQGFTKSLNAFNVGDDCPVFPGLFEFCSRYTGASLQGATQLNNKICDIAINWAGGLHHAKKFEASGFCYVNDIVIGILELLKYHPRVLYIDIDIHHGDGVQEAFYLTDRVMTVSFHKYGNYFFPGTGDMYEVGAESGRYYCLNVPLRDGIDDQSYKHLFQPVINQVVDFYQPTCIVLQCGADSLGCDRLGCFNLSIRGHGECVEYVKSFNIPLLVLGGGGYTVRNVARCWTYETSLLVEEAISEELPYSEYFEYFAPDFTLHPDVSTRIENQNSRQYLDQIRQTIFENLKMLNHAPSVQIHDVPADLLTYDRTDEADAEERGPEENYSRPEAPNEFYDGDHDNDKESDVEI
T2 sequence (Q9Y618 395-489 partner limits assumed): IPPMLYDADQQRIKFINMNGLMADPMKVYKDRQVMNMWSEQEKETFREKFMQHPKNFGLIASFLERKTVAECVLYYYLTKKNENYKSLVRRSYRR

N=C(N)NCCC[C@@H]1NC(=O)[C@@H](CCCNC(=N)N)NC(=O)[C@H]2CCCN2C(=O)[C@@H](Cc2c[nH]cn2)NC(=O)[C@H](Cc2ccc(O)cc2)NC(=O)[C@H](CCCCCS)NC(=O)[C@H](CCc2ccccc2)NC(=O)[C@@H](CO)NC(=O)[C@H](CC(=O)O)NC1=O [des3.3.1, SHA-Tyr-dHis-dPro-dArg-Arg-Asp-dSer-C27] (HELM PEPTIDE1{[O=C([C@H](CCCCCS)N[*:1])[*:2]].Y.[dH].[dP].[dR].R.D.[dS].[O=C([C@H](CCc1ccccc1)N[*:1])[*:2]]}$PEPTIDE1,PEPTIDE1,1:R1-9:R2$$$V2.0)
HDAC6 activity raw data (signal) ([1]; Conc. 1.00E-05 M, t1): 557
HDAC6 activity raw data (signal) ([1]; Conc. 1.00E-05 M, t2): -139
HDAC6 activity raw data (signal) ([1]; Conc. 1.11E-06 M, t1): 10535
HDAC6 activity raw data (signal) ([1]; Conc. 1.11E-06 M, t2): 12694
HDAC6 activity raw data (signal) ([1]; Conc. 1.23E-07 M, t1): 31520
HDAC6 activity raw data (signal) ([1]; Conc. 1.23E-07 M, t2): 38979
HDAC6 activity raw data (signal) ([1]; Conc. 1.37E-08 M, t1): 82998
HDAC6 activity raw data (signal) ([1]; Conc. 1.37E-08 M, t2): 93685
HDAC6 activity raw data (signal) ([1]; Conc. 1.52E-09 M, t1): 115704
HDAC6 activity raw data (signal) ([1]; Conc. 1.52E-09 M, t2): 134545
HDAC6 activity raw data (signal) ([1]; Conc. 3.33E-06 M, t1): 4544
HDAC6 activity raw data (signal) ([1]; Conc. 3.33E-06 M, t2): 5827
HDAC6 activity raw data (signal) ([1]; Conc. 3.70E-07 M, t1): 20428
HDAC6 activity raw data (signal) ([1]; Conc. 3.70E-07 M, t2): 19976
HDAC6 activity raw data (signal) ([1]; Conc. 4.12E-08 M, t1): 50772
HDAC6 activity raw data (signal) ([1]; Conc. 4.12E-08 M, t2): 68185
HDAC6 activity raw data (signal) ([1]; Conc. 4.57E-09 M, t1): 115536
HDAC6 activity raw data (signal) ([1]; Conc. 4.57E-09 M, t2): 120171
HDAC6 activity raw data (signal) ([1]; Conc. 5.08E-10 M, t1): 151999
HDAC6 activity raw data (signal) ([1]; Conc. 5.08E-10 M, t2): 154121
HDAC3 activity raw data (signal) ([2]; Conc. 1.00E-05 M, t1): -3010
HDAC3 activity raw data (signal) ([2]; Conc. 1.00E-05 M, t2): -2975
HDAC3 activity raw data (signal) ([2]; Conc. 1.11E-06 M, t1): -3312
HDAC3 activity raw data (signal) ([2]; Conc. 1.11E-06 M, t2): 10427
HDAC3 activity raw data (signal) ([2]; Conc. 1.23E-07 M, t1): 21751
HDAC3 activity raw data (signal) ([2]; Conc. 1.23E-07 M, t2): 40450
HDAC3 activity raw data (signal) ([2]; Conc. 1.37E-08 M, t1): 79797
HDAC3 activity raw data (signal) ([2]; Conc. 1.37E-08 M, t2): 111435
HDAC3 activity raw data (signal) ([2]; Conc. 1.52E-09 M, t1): 143913
HDAC3 activity raw data (signal) ([2]; Conc. 1.52E-09 M, t2): 186935
HDAC3 activity raw data (signal) ([2]; Conc. 3.33E-06 M, t1): -4595
HDAC3 activity raw data (signal) ([2]; Conc. 3.33E-06 M, t2): 4931
HDAC3 activity raw data (signal) ([2]; Conc. 3.70E-07 M, t1): 9528
HDAC3 activity raw data (signal) ([2]; Conc. 3.70E-07 M, t2): 17560
HDAC3 activity raw data (signal) ([2]; Conc. 4.12E-08 M, t1): 66179
HDAC3 activity raw data (signal) ([2]; Conc. 4.12E-08 M, t2): 74103
HDAC3 activity raw data (signal) ([2]; Conc. 4.57E-09 M, t1): 114353
HDAC3 activity raw data (signal) ([2]; Conc. 4.57E-09 M, t2): 144441
HDAC3 activity raw data (signal) ([2]; Conc. 5.08E-10 M, t1): 223427
HDAC3 activity raw data (signal) ([2]; Conc. 5.08E-10 M, t2): 239829
HDAC8 activity raw data (signal) ([3]; peptide conc. 1.00E-05 M, listed as des3.3.1_t1): 1764805
HDAC8 activity raw data (signal) ([3]; peptide conc. 1.00E-05 M, listed as des3.3.1_t2): 2650341
HDAC8 activity raw data (signal) ([3]; peptide conc. 1.11E-06 M, listed as des3.3.1_t1): 12709203
HDAC8 activity raw data (signal) ([3]; peptide conc. 1.11E-06 M, listed as des3.3.1_t2): 10450749
HDAC8 activity raw data (signal) ([3]; peptide conc. 1.23E-07 M, listed as des3.3.1_t1): 26946160
HDAC8 activity raw data (signal) ([3]; peptide conc. 1.23E-07 M, listed as des3.3.1_t2): 26450742
HDAC8 activity raw data (signal) ([3]; peptide conc. 1.37E-08 M, listed as des3.3.1_t1): 39769433
HDAC8 activity raw data (signal) ([3]; peptide conc. 1.37E-08 M, listed as des3.3.1_t2): 37609928
HDAC8 activity raw data (signal) ([3]; peptide conc. 1.52E-09 M, listed as des3.3.1_t1): 46887256
HDAC8 activity raw data (signal) ([3]; peptide conc. 1.52E-09 M, listed as des3.3.1_t2): 44277806
HDAC8 activity raw data (signal) ([3]; peptide conc. 3.33E-06 M, listed as des3.3.1_t1): 5825269
HDAC8 activity raw data (signal) ([3]; peptide conc. 3.33E-06 M, listed as des3.3.1_t2): 6935130
HDAC8 activity raw data (signal) ([3]; peptide conc. 3.70E-07 M, listed as des3.3.1_t1): 21428540
HDAC8 activity raw data (signal) ([3]; peptide conc. 3.70E-07 M, listed as des3.3.1_t2): 18809141
HDAC8 activity raw data (signal) ([3]; peptide conc. 4.12E-08 M, listed as des3.3.1_t1): 34070523
HDAC8 activity raw data (signal) ([3]; peptide conc. 4.12E-08 M, listed as des3.3.1_t2): 34526681
HDAC8 activity raw data (signal) ([3]; peptide conc. 4.57E-09 M, listed as des3.3.1_t1): 42350569
HDAC8 activity raw data (signal) ([3]; peptide conc. 4.57E-09 M, listed as des3.3.1_t2): 43646566
HDAC8 activity raw data (signal) ([3]; peptide conc. 5.08E-10 M, listed as des3.3.1_t1): 45458566
HDAC8 activity raw data (signal) ([3]; peptide conc. 5.08E-10 M, listed as des3.3.1_t2): 46659013
